ChEMBL document CHEMBL3044741, “Synthesis of novel biologically active methylene derivatives of sydnones” (Med Chem Res, 2013)
Values after ≈ are worked out from the molar mass of the structure shown.

Legend:
[1] = Selectivity index, ratio of CC50 for human MT4 cells to IC50 for HIV2 ROD; type: functional
[2] = Cytotoxicity against human MT4 cells by MTT assay; type: cell-based
[3] = Selectivity index, ratio of CC50 for human MT4 cells to IC50 for HIV1 3B; type: functional
[4] = system: Human immunodeficiency virus 2; assay: Antiviral activity against HIV2 ROD infected in MT4 cells assessed as inhibition of virus-induced cytopathogenicity by MTT assay; type: functional, organism-based; settings: Human immunodeficiency virus 2, ISOLATE ROD
Human alphaherpesvirus 3 [5] = assay: Antiviral activity against thymidine kinase-deficient Varicella-zoster virus infected in HEL cells assessed as reduction in plaque formation; type: functional, organism-based; settings: Human alphaherpesvirus 3, HEL
[6] = system: Human immunodeficiency virus 1; assay: Antiviral activity against HIV1 3B infected in MT4 cells assessed as inhibition of virus-induced cytopathogenicity by MTT assay; type: functional, organism-based; settings: Human immunodeficiency virus 1, 3B
Human alphaherpesvirus 3 [7] = assay: Antiviral activity against Varicella-zoster virus Oka expressing thymidine kinase infected in HEL cells assessed as reduction in plaque formation; type: functional, organism-based; settings: Human alphaherpesvirus 3, strain Oka vaccine
[8] = Cytotoxicity against human HEL cells; type: cell-based
Cytomegalovirus [9] = assay: Antiviral activity against Cytomegalovirus Davis in HEL cells assessed as reduction in plaque formation; type: functional, organism-based; settings: Human betaherpesvirus 5, Davis
[10] = Cytotoxicity against human HEL cells assessed as alteration in cell morphology; type: cell-based
Cytomegalovirus [11] = assay: Antiviral activity against Cytomegalovirus AD-169 infected in HEL cells assessed as reduction in plaque formation; type: functional, organism-based; settings: Human betaherpesvirus 5, AD-169, HEL
Aspergillus niger [12] = assay: Antifungal activity against Aspergillus niger MTCC 282; type: functional
Aspergillus clavatus [13] = assay: Antifungal activity against Aspergillus clavatus MTCC 1323; type: functional
Candida albicans [14] = assay: Antifungal activity against Candida albicans MTCC 227; type: functional
Aspergillus niger [15] = assay: Antifungal activity against Aspergillus niger MTCC 282 at 250 ug/ml after 74 hrs by Kirby-Bauer method; type: functional; settings: MTCC 282, 74 h, read-out: IZ
Aspergillus clavatus [16] = assay: Antifungal activity against Aspergillus clavatus MTCC 1323 at 250 ug/ml after 74 hrs by Kirby-Bauer method; type: functional; settings: MTCC 1323, 74 h, read-out: IZ
Candida albicans [17] = assay: Antifungal activity against Candida albicans MTCC 227 at 250 ug/ml after 74 hrs by Kirby-Bauer method; type: functional; settings: MTCC 227, 74 h, read-out: IZ
Pseudomonas aeruginosa [18] = assay: Antibacterial activity against Pseudomonas aeruginosa MTCC 424 after 24 hrs by broth dilution method; type: functional; settings: MTCC 424, 24 h
Streptococcus pyogenes [19] = assay: Antibacterial activity against Streptococcus pyogenes MTCC 442 after 24 hrs by broth dilution method; type: functional; settings: MTCC 442, 24 h
Escherichia coli [20] = assay: Antibacterial activity against Escherichia coli MTCC 443 after 24 hrs by broth dilution method; type: functional; settings: MTCC 443, 24 h
Staphylococcus aureus [21] = assay: Antibacterial activity against Staphylococcus aureus MTCC 96 after 24 hrs by broth dilution method; type: functional; settings: MTCC 96, 24 h
Pseudomonas aeruginosa [22] = assay: Antibacterial activity against Pseudomonas aeruginosa MTCC 424 at 250 ug/ml after 24 hrs by Kirby-Bauer method; type: functional; settings: MTCC 424, 24 h, read-out: IZ
Escherichia coli [23] = assay: Antibacterial activity against Escherichia coli MTCC 443 at 250 ug/ml after 24 hrs by Kirby-Bauer method; type: functional; settings: MTCC 443, 24 h, read-out: IZ
Streptococcus pyogenes [24] = assay: Antibacterial activity against Streptococcus pyogenes MTCC 442 at 250 ug/ml after 24 hrs by Kirby-Bauer method; type: functional; settings: MTCC 442, 24 h, read-out: IZ
Staphylococcus aureus [25] = assay: Antibacterial activity against Staphylococcus aureus MTCC 96 at 250 ug/ml after 24 hrs by Kirby-Bauer method; type: functional; settings: MTCC 96, 24 h, read-out: IZ

| SMILES | Ratio CC50/IC50 [1] | CC50 [2] [µg/mL] | Ratio CC50/IC50 [3] | IC50 [4] [µg/mL] | EC50 (Human alphaherpesvirus 3 [5]) [µg/mL] | IC50 [6] [µg/mL] | EC50 (Human alphaherpesvirus 3 [7]) [µg/mL] | CC50 [8] [µg/mL] | EC50 (Cytomegalovirus [9]) [µg/mL] | MCC [10] [µg/mL] | EC50 (Cytomegalovirus [11]) [µg/mL] | MIC (Aspergillus niger [12]) [µg/mL] | MIC (Aspergillus clavatus [13]) [µg/mL] | MIC (Candida albicans [14]) [µg/mL] | zone of inhibition at 250 µg/mL (Aspergillus niger [15]) [mm] | zone of inhibition at 250 µg/mL (Aspergillus clavatus [16]) [mm] | zone of inhibition at 250 µg/mL (Candida albicans [17]) [mm] | MIC (Pseudomonas aeruginosa [18]) [µg/mL] | MIC (Streptococcus pyogenes [19]) [µg/mL] | MIC (Escherichia coli [20]) [µg/mL] | further results |
| --- | --- | --- | --- | --- | --- | --- | --- | --- | --- | --- | --- | --- | --- | --- | --- | --- | --- | --- | --- | --- | --- |
| Cc1ccc(-[n+]2noc([O-])c2CN2CCCCC2)cc1 | <1 | 18.7 (≈ 68.3 µM) | <1 | > 18.7 | > 20 | > 18.7 | > 20 | 28.5 (≈ 104 µM) | > 20 | 100 | > 20 | 500 (≈ 1830 µM) | 250 (≈ 915 µM) | 250 (≈ 915 µM) | 24 | 25 | 21 | 250 (≈ 915 µM) | 200 (≈ 732 µM) | 100 (≈ 366 µM) | MIC (Staphylococcus aureus [21]): 500 µg/mL (≈ 1830 µM); zone of inhibition at 250 µg/mL (Pseudomonas aeruginosa [22]): 21 mm; zone of inhibition at 250 µg/mL (Escherichia coli [23]): 21 mm; zone of inhibition at 250 µg/mL (Streptococcus pyogenes [24]): 18 mm; zone of inhibition at 250 µg/mL (Staphylococcus aureus [25]): 16 mm |
| [O-]c1on[n+](-c2ccc(Cc3ccc(-[n+]4noc([O-])c4CN4CCN(C5=Nc6ccccc6Sc6ccccc65)CC4)cc3)cc2)c1CN1CCN(C2=Nc3ccccc3Sc3ccccc32)CC1 | <1 | 11.6 (≈ 12.2 µM) | <1 | > 11.6 | > 4 | > 11.6 | > 4 | 13.8 (≈ 14.5 µM) | > 20 | 100 | > 20 | 1000 (≈ 1050 µM) | 500 (≈ 526 µM) | 500 (≈ 526 µM) | 18 | 23 | 25 | 125 (≈ 131 µM) | 250 (≈ 263 µM) | 250 (≈ 263 µM) | MIC (Staphylococcus aureus [21]): 62.5 µg/mL (≈ 65.7 µM); zone of inhibition at 250 µg/mL (Pseudomonas aeruginosa [22]): 21 mm; zone of inhibition at 250 µg/mL (Escherichia coli [23]): 19 mm; zone of inhibition at 250 µg/mL (Streptococcus pyogenes [24]): 18 mm; zone of inhibition at 250 µg/mL (Staphylococcus aureus [25]): 23 mm |
| CN1CCN(Cc2c([O-])on[n+]2-c2ccc(Cc3ccc(-[n+]4noc([O-])c4CN4CCN(C)C(c5ccccc5)C4)cc3)cc2)CC1c1ccccc1 (stereo not given) | <1 | 14 (≈ 19.6 µM) | <1 | > 14 | > 20 | > 14 | > 20 | 36.8 (≈ 51.6 µM) | > 20 | 100 | > 20 | 1000 (≈ 1400 µM) | 500 (≈ 701 µM) | 500 (≈ 701 µM) | 20 | 23 | 18 | 250 (≈ 351 µM) | 250 (≈ 351 µM) | 100 (≈ 140 µM) | MIC (Staphylococcus aureus [21]): 500 µg/mL (≈ 701 µM); zone of inhibition at 250 µg/mL (Pseudomonas aeruginosa [22]): 18 mm; zone of inhibition at 250 µg/mL (Escherichia coli [23]): 21 mm; zone of inhibition at 250 µg/mL (Streptococcus pyogenes [24]): 18 mm; zone of inhibition at 250 µg/mL (Staphylococcus aureus [25]): 16 mm |
| [O-]c1on[n+](-c2ccc(Cc3ccc(-[n+]4noc([O-])c4CN4CCCCC4)cc3)cc2)c1CN1CCCCC1 | <1 | 12.1 (≈ 22.7 µM) | <1 | > 12 | > 4 | > 12 | > 4 | 12.6 (≈ 23.7 µM) | 20 (≈ 37.7 µM) | ≥ 20 | > 4 | 250 (≈ 471 µM) | 500 (≈ 942 µM) | 500 (≈ 942 µM) | 23 | 21 | 22 | 125 (≈ 236 µM) | 125 (≈ 236 µM) | 500 (≈ 942 µM) | MIC (Staphylococcus aureus [21]): 250 µg/mL (≈ 471 µM); zone of inhibition at 250 µg/mL (Pseudomonas aeruginosa [22]): 20 mm; zone of inhibition at 250 µg/mL (Escherichia coli [23]): 16 mm; zone of inhibition at 250 µg/mL (Streptococcus pyogenes [24]): 20 mm; zone of inhibition at 250 µg/mL (Staphylococcus aureus [25]): 18 mm |
